From patent US20100144860A1, “Transglutaminase Inhibitor Comprising EGCG And A Method For Producing Thereof” (priority 2007, published 2010)

Molecular target: T1, Transglutaminase 2 (Cavia cutleri, UniProt P08587)
T1 construct: purchased Sigma-Aldrich T5398
T1 sequence (P08587 1-690): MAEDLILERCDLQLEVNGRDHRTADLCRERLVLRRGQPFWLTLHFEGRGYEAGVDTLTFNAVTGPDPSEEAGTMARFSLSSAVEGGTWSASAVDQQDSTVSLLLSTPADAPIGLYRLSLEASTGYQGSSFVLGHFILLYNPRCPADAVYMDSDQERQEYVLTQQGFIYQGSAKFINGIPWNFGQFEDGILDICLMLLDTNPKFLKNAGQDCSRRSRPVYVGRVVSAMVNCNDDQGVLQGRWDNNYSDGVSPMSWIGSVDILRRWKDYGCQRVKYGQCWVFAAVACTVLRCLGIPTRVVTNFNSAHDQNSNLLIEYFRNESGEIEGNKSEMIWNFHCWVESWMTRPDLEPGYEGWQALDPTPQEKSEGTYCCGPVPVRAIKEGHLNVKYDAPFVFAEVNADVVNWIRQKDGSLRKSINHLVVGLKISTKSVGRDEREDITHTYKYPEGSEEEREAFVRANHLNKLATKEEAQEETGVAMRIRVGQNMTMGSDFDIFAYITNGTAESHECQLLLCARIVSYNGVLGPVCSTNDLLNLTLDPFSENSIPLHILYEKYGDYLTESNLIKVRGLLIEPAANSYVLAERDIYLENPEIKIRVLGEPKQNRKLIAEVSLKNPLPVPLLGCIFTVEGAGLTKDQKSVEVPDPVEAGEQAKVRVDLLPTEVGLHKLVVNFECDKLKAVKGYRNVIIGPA
Assay: In vitro assay for inhibition of transglutaminase activity ([1,4-14C] putrescine incorporation into succinylated casein)
Assay type: biochemical
Conditions: for activity of transglutaminase, Mean: mean of three assays, relative to DMSO control; for activity of transglutaminase, Assay 1 / activity of transglutaminase, Assay 2 / activity of transglutaminase, Assay 3: radioactivity compensated by DMSO-control group (=1.0000)
Description: To measure the inhibitory activity of EGCG which competes with putrescine, the transglutaminase-catalyzed reaction between [1,4,-^14C] putrescine and succinylated casein were observed.
Succinylated casein was purchased from Calbiochem (Cat. No. 573464), and 1 g of the powder was dissolved in 50 ml of a reaction buffer solution containing 5 mM DTT (0.1 M Tris-acetate (pH 8.0), 10 mM CaCl2, 0.15 M NaCl, 1.0 mM EDTA). This solution was stored in a deep freezer for further use. [1,4-^14C] Putrescine dihydrochloride was purchased from GE Healthcare (Cat. No. CFA301), and the stock solution was diluted with distilled water to yield a radiological dose of 5 μCi/ml. Transglutaminase 2 was purchased from Sigma-Aldrich (Cat. No. T5398), and diluted with distilled water to yield a final concentration of 1 unit/ml. EGCG (Sigma-Aldrich, Cat. No. E4143) was dissolved in DMSO at a concentration of 10 mM to prepare its stock solution, and the stock solution was diluted with DMSO to prepare solutions having various concentrations.
450 μl of succinylated casein solution and 50 μl of [1,4-^14C] putrescine dihydrochloride solution were mixed together to prepare a substrate solution. 96 μl of the reaction buffer, 3 μl of the stock solution of EGCG, and 1 μl of the stock solution of transglutaminase were mixed together to prepare each sample, followed by incubation at 37° C. for 10 min. 500 μl of the substrate solution and 100 μl of sample solution were mixed well, and the mixture was incubated at 37° C. for 2 hrs, before termination with 4.5 ml of cold (4° C.) 7.5% TCA. The final solution was stored at 4° C. for 1 hr. The TCA-precipitates were filtered through a GF/glass fiber filter, washed with 25 ml of cold 5% TCA, and dried. Radioactivity of crosslinked protein was measured using a (β-counter (Beckman Coulter), and compensated by the activity of DMSO-control group as a standard. The activity of transglutaminase was represented by the measured values. The assay was repeated three times under the same conditions, and the results are shown in the following Table 1.

With `O=C(O[C@@H]1Cc2c(O)cc(O)cc2O[C@@H]1c1cc(O)c(O)c(O)c1)c1cc(O)c(O)c(O)c1` [EGCG, [2R, 3R]-2[3,4,5-trihydroxyphenyl]-3,4-dihydro-1[2H]-benzopyran-3,5,7-triol-3-[3,4,5-trihydroxybenzonate]] the “activity of transglutaminase, Mean” value (EGCG 0.5 μM) was 0.5383, the “activity of transglutaminase, Assay 1” value (EGCG 0.5 μM) was 0.5166 and the “activity of transglutaminase, Assay 2” value (EGCG 0.5 μM) was 0.5690. The “activity of transglutaminase, Assay 3” value (EGCG 0.5 μM) was 0.5295, the “activity of transglutaminase, Mean” value (EGCG 1.0 μM) was 0.3677 and the “activity of transglutaminase, Assay 1” value (EGCG 1.0 μM) was 0.3950. For the same compound, the “activity of transglutaminase, Assay 2” value (EGCG 1.0 μM) was 0.3873, the “activity of transglutaminase, Assay 3” value (EGCG 1.0 μM) was 0.3207 and the “activity of transglutaminase, Mean” value (EGCG 2.0 μM) was 0.2001. For the same compound, the “activity of transglutaminase, Assay 1” value (EGCG 2.0 μM) was 0.2009, the “activity of transglutaminase, Assay 2” value (EGCG 2.0 μM) was 0.2288 and the “activity of transglutaminase, Assay 3” value (EGCG 2.0 μM) was 0.1707. For the same compound, the “activity of transglutaminase, Mean” value (EGCG 3.0 μM) was 0.1765, the “activity of transglutaminase, Assay 1” value (EGCG 3.0 μM) was 0.1911 and the “activity of transglutaminase, Assay 2” value (EGCG 3.0 μM) was 0.1902. For the same compound, the “activity of transglutaminase, Assay 3” value (EGCG 3.0 μM) was 0.1482, the “activity of transglutaminase, Mean” value (EGCG 5.0 μM) was 0.1064 and the “activity of transglutaminase, Assay 1” value (EGCG 5.0 μM) was 0.1246. For the same compound, the “activity of transglutaminase, Assay 2” value (EGCG 5.0 μM) was 0.0947, the “activity of transglutaminase, Assay 3” value (EGCG 5.0 μM) was 0.1000 and the “activity of transglutaminase, Mean” value (EGCG 10.0 μM) was 0.0879. The “activity of transglutaminase, Assay 1” value (EGCG 10.0 μM) was 0.1029, the “activity of transglutaminase, Assay 2” value (EGCG 10.0 μM) was 0.0726 and the “activity of transglutaminase, Assay 3” value (EGCG 10.0 μM) was 0.0881. The “activity of transglutaminase, Mean” value (EGCG 50.0 μM) was 0.0871, the “activity of transglutaminase, Assay 1” value (EGCG 50.0 μM) was 0.0861 and the “activity of transglutaminase, Assay 2” value (EGCG 50.0 μM) was 0.0903. For the same compound, the “activity of transglutaminase, Assay 3” value (EGCG 50.0 μM) was 0.0849, the “inhibition of the activity of transglutaminase (in words)” value (FIG. 1, relative inhibition activities) was “inhibited in an EGCG concentration-dependent manner” and the IC50 (calculated by nonlinear regression from mean values) was 517 nM.
